Experimental data as given in ChEMBL document CHEMBL1142291, “A novel bicyclic hexapeptide, RA-XVIII, from Rubia cordifolia: structure, semi-synthesis, and cytotoxicity” (Bioorg Med Chem Lett, 2008).
In brackets after ≈: the same amount, converted by molar mass.

Tested on: P388
Experiment: Cytotoxicity against mouse P388 cells
Assay type: functional, cell-based

Compound | IC50
COc1ccc(C[C@H]2C(=O)N[C@@H](C)C(=O)N(C)[C@H]3Cc4ccc(cc4)Oc4cc(cc([N+](=O)[O-])c4O)C[C@@H](C(=O)N[C@H](C)C(=O)N[C@@H](C)C(=O)N2C)N(C)C3=O)cc1 | 0.014 µg/mL (≈ 0.0175 µM)
COc1ccc(C[C@H]2C(=O)N[C@@H](C)C(=O)N(C)[C@H]3Cc4ccc(cc4)Oc4cc(cc([N+](=O)[O-])c4OC)C[C@@H](C(=O)N[C@H](C)C(=O)N[C@@H](C)C(=O)N2C)N(C)C3=O)cc1 | 0.01 µg/mL (≈ 0.0123 µM)
COc1ccc(C[C@H]2C(=O)N[C@@H](C)C(=O)N(C)[C@H]3Cc4ccc(cc4)Oc4cc(c([N+](=O)[O-])cc4OC)C[C@@H](C(=O)N[C@H](C)C(=O)N[C@@H](C)C(=O)N2C)N(C)C3=O)cc1 | 0.056 µg/mL (≈ 0.0686 µM)
COc1ccc(C[C@H]2C(=O)N[C@@H](C)C(=O)N(C)[C@H]3Cc4ccc(cc4)Oc4cc(c(O)cc4OC)C[C@@H](C(=O)N[C@H](C)C(=O)N[C@@H](C)C(=O)N2C)N(C)C3=O)cc1 | 0.093 µg/mL (≈ 0.118 µM)
COc1ccc(C[C@H]2C(=O)N[C@@H](C)C(=O)N(C)[C@H]3Cc4ccc(cc4)Oc4cc(ccc4OC)C[C@@H](C(=O)N[C@H](C)C(=O)N[C@@H](C)C(=O)N2C)N(C)C3=O)cc1 | 0.003 µg/mL (≈ 0.00389 µM)
COc1ccc(C[C@H]2C(=O)N[C@@H](C)C(=O)N(C)[C@H]3Cc4ccc(cc4)Oc4cc(cc(O)c4OC)C[C@@H](C(=O)N[C@H](C)C(=O)N[C@@H](C)C(=O)N2C)N(C)C3=O)cc1 | 0.012 µg/mL (≈ 0.0153 µM)
COc1ccc(C[C@H]2C(=O)N[C@@H](C)C(=O)N(C)[C@H]3Cc4ccc(cc4)Oc4cc(cc(N)c4OC)C[C@@H](C(=O)N[C@H](C)C(=O)N[C@@H](C)C(=O)N2C)N(C)C3=O)cc1 | 0.0071 µg/mL (≈ 0.00903 µM)
COc1ccc(C[C@H]2C(=O)N[C@@H](C)C(=O)N(C)[C@H]3Cc4ccc(cc4)Oc4cc(c(N)cc4OC)C[C@@H](C(=O)N[C@H](C)C(=O)N[C@@H](C)C(=O)N2C)N(C)C3=O)cc1 | 0.7 µg/mL (≈ 0.891 µM)
COc1ccc(C[C@H]2C(=O)N[C@@H](C)C(=O)N(C)[C@H]3Cc4ccc(cc4)Oc4cc(ccc4O)C[C@@H](C(=O)N[C@H](C)C(=O)N[C@@H](C)C(=O)N2C)N(C)C3=O)cc1 [DEOXYBOUVARDIN] | 0.014 µg/mL (≈ 0.0185 µM)
